# Laboratory results from patent US20160362433A1, “ETHER COMPOUNDS FOR TREATMENT OF COMPLEMENT MEDIATED DISORDERS” (Achillion Pharmaceuticals, Inc., priority 2014, published 2016).
# Biological target: T1, Human factor D (Homo sapiens, UniProt P00746)
# T1 construct: Human factor D (purified from human serum, Complement Technology, Inc.); purchased Complement Technology, Inc; host or cells: human serum
# Experiment: Human Factor D Assay
# Assay type: biochemical
# Conditions: Human factor D 80 nM, substrate Z-L-Lys-SBzl, DTNB
# Protocol: The assay of Example 8 was used to determine the IC50's of the compounds. Other standard factor D inhibition assays are also available.
# Human factor D (purified from human serum, Complement Technology, Inc.) at 80 nM final concentration is incubated with test compound at various concentrations for 5 minutes at room temperature in 50 mM Tris, 1M NaCl, pH 7.5. A synthetic substrate Z-L-Lys-SBzl and DTNB (Ellman's reagent) are added to final concentrations of 100 μM each. The increase in color is recorded at OD405 nm in a microplate in kinetic mode over 30 minutes with 30 second time points in a spectrofluorimeter. IC50 values are calculated by non-linear regression from the percentage of inhibition of complement factor D activity as a function of test compound concentration.
# T1 sequence (P00746 26-253): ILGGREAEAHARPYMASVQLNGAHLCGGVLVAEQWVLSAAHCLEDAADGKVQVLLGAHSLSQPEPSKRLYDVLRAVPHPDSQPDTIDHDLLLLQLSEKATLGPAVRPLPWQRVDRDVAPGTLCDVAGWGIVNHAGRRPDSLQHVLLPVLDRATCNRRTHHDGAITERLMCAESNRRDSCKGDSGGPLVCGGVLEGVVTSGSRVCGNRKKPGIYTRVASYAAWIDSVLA
smiles,measurement,value
"CC(=O)c1cn(CC(=O)N2C[C@H](F)C[C@H]2C(=O)NCc2cccc(Cl)c2F)c2cc(OCc3cc4ccc3CCc3ccc(cc3)CC4)ccc12 [Compound 6, (2S,4R)-1-(2-(3-acetyl-6-((tricyclo[8.2.2.2^4,7]hexadeca-4,6,10,12,13,15-hexaen-5-ylmethyl)oxy)-1H-indol-1-yl)acetyl)-N-(3-chloro-2-fluorobenzyl)-4-fluoropyrrolidine-2-carboxamide]",IC50,1 to 10 µM
